The record followed here is PubChem BioAssay AID272 (DTP/NCI, 2004).

Each structure is given as a SMILES string. Several values for one entry are separate records, joined by “and”; a condition that tells them apart may be missing. Equal entries are not always repeated. Records with an inconclusive call do not appear.

The experiment concerns Lewis lung carcinoma i.m., BDF1 mice, T/C %. Nature of the experiment: NCI In Vivo Anticancer Drug Screen. Data for tumor model Lewis Lung Carcinoma (intramuscular) in B6D2F1 (BDF1) mice. The essentials:
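Tumour-bearing mice were dosed with compound, and either their survival or their tumour size was measured. Results were expressed relative to vehicle-treated controls as T/C.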

The mark [1] stands for this setting: endpoint: median survival time, dose: 6.25 mg/kg/injection, schedule: Q01DX011 (ip), vehicle: Klucel (hydroxypropylcellulose) (HPC), higher = longer survival.
Setting [2] is: endpoint: median survival time, dose: 12.5 mg/kg/injection, schedule: Q01DX011 (ip), vehicle: Klucel (hydroxypropylcellulose) (HPC), higher = longer survival.
[3] abbreviates: endpoint: median survival time, dose: 25.0 mg/kg/injection, schedule: Q01DX011 (ip), vehicle: Klucel (hydroxypropylcellulose) (HPC), higher = longer survival.
Setting [4] is: endpoint: mean tumor weight (est.), dose: 12.5 mg/kg/injection, schedule: Q01DX011 (ip), vehicle: saline with Tween-80, higher = larger tumour.
Setting [5] is: endpoint: mean tumor weight (est.), dose: 25.0 mg/kg/injection, schedule: Q01DX011 (ip), vehicle: saline with Tween-80, higher = larger tumour.
The mark [6] stands for this setting: endpoint: median survival time, dose: 12.5 mg/kg/injection, schedule: Q01DX011 (ip), vehicle: saline with Tween-80, higher = longer survival.
The mark [7] stands for this setting: endpoint: mean tumor weight (est.), dose: 100.0 mg/kg/injection, schedule: Q01DX011 (ip), vehicle: saline with Tween-80, higher = larger tumour.
Setting [8] is: endpoint: median survival time, dose: 100.0 mg/kg/injection, schedule: Q01DX011 (ip), vehicle: saline with Tween-80, higher = longer survival.

Regarding `CCCCn1cnc2c(=S)nc[nH]c21`, the T/C is, setting by setting: (endpoint: mean tumor weight, dose: 1.56 mg/kg/injection, schedule: Q01DX011 (ip), vehicle: other, higher = larger tumour) 89 % of control; (endpoint: mean tumor weight, dose: 6.25 mg/kg/injection, schedule: Q01DX011 (ip), vehicle: other, higher = larger tumour) 85 % of control; (endpoint: median survival time, dose: 1.56 mg/kg/injection, schedule: Q01DX011 (ip), vehicle: other, higher = longer survival) 94 % of control and 104 % of control; (endpoint: median survival time, dose: 3.12 mg/kg/injection, schedule: Q01DX011 (ip), vehicle: other, higher = longer survival) 100 % of control; (endpoint: median survival time, dose: 6.25 mg/kg/injection, schedule: Q01DX011 (ip), vehicle: other, higher = longer survival) 97 % of control and 108 % of control; (endpoint: median survival time, dose: 12.5 mg/kg/injection, schedule: Q01DX011 (ip), vehicle: other, higher = longer survival) 110 % of control. Further, the T/C (endpoint: median survival time, dose: 25.0 mg/kg/injection, schedule: Q01DX011 (ip), vehicle: other, higher = longer survival) is 116 % of control.

Take `NC(=O)c1cc(N2CC2)c([N+](=O)[O-])cc1[N+](=O)[O-]`: the T/C by setting is: (endpoint: mean tumor weight, dose: 10.0 mg/kg/injection, schedule: Q01DX011 (ip), vehicle: saline with Tween-80, higher = larger tumour) 100 % of control; (endpoint: mean tumor weight, dose: 20.0 mg/kg/injection, schedule: Q01DX011 (ip), vehicle: saline with Tween-80, higher = larger tumour) 52 % of control; (endpoint: mean tumor weight, dose: 40.0 mg/kg/injection, schedule: Q01DX011 (ip), vehicle: saline with Tween-80, higher = larger tumour) 5 % of control; (endpoint: median survival time, dose: 10.0 mg/kg/injection, schedule: Q01DX011 (ip), vehicle: saline with Tween-80, higher = longer survival) 94 % of control; (endpoint: median survival time, dose: 20.0 mg/kg/injection, schedule: Q01DX011 (ip), vehicle: saline with Tween-80, higher = longer survival) 116 % of control; (endpoint: median survival time, dose: 40.0 mg/kg/injection, schedule: Q01DX011 (ip), vehicle: saline with Tween-80, higher = longer survival) 88 % of control.

`COC1C(O)C(O)OC(CO)C1O` (stereo not given): the T/C is, setting by setting: (endpoint: mean tumor weight (est.), dose: 500.0 mg/kg/injection, schedule: Q01DX011 (ip), vehicle: saline, higher = larger tumour) 83 % of control; (endpoint: mean tumor weight (est.), dose: 1000.0 mg/kg/injection, schedule: Q01DX011 (ip), vehicle: saline, higher = larger tumour) 77 % of control; (endpoint: median survival time, dose: 500.0 mg/kg/injection, schedule: Q01DX011 (ip), vehicle: saline, higher = longer survival) 106 % of control; (endpoint: median survival time, dose: 1000.0 mg/kg/injection, schedule: Q01DX011 (ip), vehicle: saline, higher = longer survival) 112 % of control.

For `CCN1/C(=C/C(C)=C/c2sc3ccccc3[n+]2CC)Sc2ccccc21`, the T/C reads like this: (endpoint: mean tumor weight (est.), dose: 50.0 micrograms/kg/injection, schedule: Q01DX011 (ip), vehicle: saline with Tween-80, higher = larger tumour) 88 % of control; (endpoint: mean tumor weight (est.), dose: 100.0 micrograms/kg/injection, schedule: Q01DX011 (ip), vehicle: saline with Tween-80, higher = larger tumour) 74 % of control; (endpoint: median survival time, dose: 50.0 micrograms/kg/injection, schedule: Q01DX011 (ip), vehicle: saline with Tween-80, higher = longer survival) 91 % of control; (endpoint: median survival time, dose: 100.0 micrograms/kg/injection, schedule: Q01DX011 (ip), vehicle: saline with Tween-80, higher = longer survival) 87 % of control.

As to `CCn1cnc2c(=S)nc[nH]c21`, the T/C is 110 % of control (endpoint: mean tumor weight (est.), dose: 25.0 mg/kg/injection, schedule: Q01DX011 (ip), vehicle: Klucel (hydroxypropylcellulose) (HPC), higher = larger tumour); 81 % of control (endpoint: mean tumor weight, dose: 1.56 mg/kg/injection, schedule: Q01DX011 (ip), vehicle: steriod suspending solution, higher = larger tumour); 86 % of control (endpoint: mean tumor weight, dose: 6.25 mg/kg/injection, schedule: Q01DX011 (ip), vehicle: steriod suspending solution, higher = larger tumour); 100 % of control (endpoint: median survival time, dose: 0.78 mg/kg/injection, schedule: Q01DX011 (ip), vehicle: Klucel (hydroxypropylcellulose) (HPC), higher = longer survival); 104 % of control (endpoint: median survival time, dose: 1.56 mg/kg/injection, schedule: Q01DX011 (ip), vehicle: Klucel (hydroxypropylcellulose) (HPC), higher = longer survival); 106 % of control (endpoint: median survival time, dose: 3.12 mg/kg/injection, schedule: Q01DX011 (ip), vehicle: Klucel (hydroxypropylcellulose) (HPC), higher = longer survival). In addition, the T/C reads like this: under setting [1], 102 % of control and 108 % of control; under setting [2], 106 % of control; under setting [3], 95 % of control and 104 % of control.

As for `O=c1c(O)c(-c2ccc(O)c(O)c2)oc2cc(O)cc(O)c12`, the T/C (endpoint: median survival time, dose: 200.0 mg/kg/injection, schedule: Q02DX009 (ip), vehicle: saline, higher = longer survival) was 102 % of control.

As for `CC(=O)c1ccc(Oc2ccc(/C(C)=N\N=C(N)N)cc2)cc1`, the T/C runs as follows: under setting [4], 66 % of control; under setting [5], 74 % of control; under setting [6], 91 % of control.

For `O=C1CN=C(c2ccc[nH]2)c2cc(Cl)ccc2N1`, the T/C is 74 % of control (endpoint: mean tumor weight, dose: 6.25 mg/kg/injection, schedule: Q01DX011 (ip), vehicle: Klucel (hydroxypropylcellulose) (HPC), higher = larger tumour); 111 % of control (endpoint: mean tumor weight, dose: 12.5 mg/kg/injection, schedule: Q01DX011 (ip), vehicle: Klucel (hydroxypropylcellulose) (HPC), higher = larger tumour); 82 % of control (endpoint: mean tumor weight, dose: 25.0 mg/kg/injection, schedule: Q01DX011 (ip), vehicle: Klucel (hydroxypropylcellulose) (HPC), higher = larger tumour); 96 % of control (endpoint: mean tumor weight, dose: 50.0 mg/kg/injection, schedule: Q01DX011 (ip), vehicle: Klucel (hydroxypropylcellulose) (HPC), higher = larger tumour); 95 % of control (endpoint: mean tumor weight, dose: 100.0 mg/kg/injection, schedule: Q01DX011 (ip), vehicle: Klucel (hydroxypropylcellulose) (HPC), higher = larger tumour); 97 % of control under setting [1]. Also, the T/C was 100 % of control under setting [2]; 88 % of control and 111 % of control under setting [3]; 102 % of control (endpoint: median survival time, dose: 50.0 mg/kg/injection, schedule: Q01DX011 (ip), vehicle: Klucel (hydroxypropylcellulose) (HPC), higher = longer survival); 100 % of control (endpoint: median survival time, dose: 100.0 mg/kg/injection, schedule: Q01DX011 (ip), vehicle: Klucel (hydroxypropylcellulose) (HPC), higher = longer survival).

`CC(=N/NC(N)=S)/C(C)=N/NC(N)=S`: the T/C under setting [7] was 73 % of control; the T/C (endpoint: mean tumor weight (est.), dose: 200.0 mg/kg/injection, schedule: Q01DX011 (ip), vehicle: saline with Tween-80, higher = larger tumour) was 65 % of control; the T/C (endpoint: mean tumor weight (est.), dose: 400.0 mg/kg/injection, schedule: Q01DX011 (ip), vehicle: saline with Tween-80, higher = larger tumour) was 42 % of control; the T/C under setting [8] was 93 % of control; the T/C (endpoint: median survival time, dose: 200.0 mg/kg/injection, schedule: Q01DX011 (ip), vehicle: saline with Tween-80, higher = longer survival) was 91 % of control; the T/C (endpoint: median survival time, dose: 400.0 mg/kg/injection, schedule: Q01DX011 (ip), vehicle: saline with Tween-80, higher = longer survival) was 91 % of control.

For `Cc1cc(C)c(C(=O)CC(=O)c2cccnc2)c(C)c1`, the T/C (endpoint: mean tumor weight (est.), dose: 8.75 mg/kg/injection, schedule: Q01DX011 (ip), vehicle: other, higher = larger tumour) was 69 % of control; the T/C (endpoint: mean tumor weight (est.), dose: 17.5 mg/kg/injection, schedule: Q01DX011 (ip), vehicle: other, higher = larger tumour) is 70 % of control; the T/C (endpoint: mean tumor weight (est.), dose: 35.0 mg/kg/injection, schedule: Q01DX011 (ip), vehicle: other, higher = larger tumour) was 93 % of control; the T/C (endpoint: mean tumor weight (est.), dose: 70.0 mg/kg/injection, schedule: Q01DX011 (ip), vehicle: other, higher = larger tumour) is 83 % of control; the T/C (endpoint: median survival time, dose: 8.75 mg/kg/injection, schedule: Q01DX011 (ip), vehicle: other, higher = longer survival) is 92 % of control; the T/C (endpoint: median survival time, dose: 17.5 mg/kg/injection, schedule: Q01DX011 (ip), vehicle: other, higher = longer survival) was 106 % of control. Also, the T/C is 106 % of control (endpoint: median survival time, dose: 35.0 mg/kg/injection, schedule: Q01DX011 (ip), vehicle: other, higher = longer survival) and 94 % of control (endpoint: median survival time, dose: 70.0 mg/kg/injection, schedule: Q01DX011 (ip), vehicle: other, higher = longer survival).

Regarding `CCCCCCCCCCCC(c1ccccc1)[N+](C)(C)C` (stereo not given), the T/C reads like this: (endpoint: mean tumor weight (est.), dose: 2.0 mg/kg/injection, schedule: Q01DX011 (ip), vehicle: saline, higher = larger tumour) 89 % of control; (endpoint: mean tumor weight (est.), dose: 4.0 mg/kg/injection, schedule: Q01DX011 (ip), vehicle: saline, higher = larger tumour) 76 % of control; (endpoint: median survival time, dose: 2.0 mg/kg/injection, schedule: Q01DX011 (ip), vehicle: saline, higher = longer survival) 104 % of control; (endpoint: median survival time, dose: 4.0 mg/kg/injection, schedule: Q01DX011 (ip), vehicle: saline, higher = longer survival) 108 % of control.

Regarding `CCCCNC(C)(C)COC(=O)/C=C/c1ccc(OCCCC)cc1`, the T/C reads like this: under setting [4], 89 % of control; under setting [5], 82 % of control; (endpoint: mean tumor weight (est.), dose: 50.0 mg/kg/injection, schedule: Q01DX011 (ip), vehicle: saline with Tween-80, higher = larger tumour) 67 % of control; under setting [7], 59 % of control; under setting [6], 88 % of control; (endpoint: median survival time, dose: 25.0 mg/kg/injection, schedule: Q01DX011 (ip), vehicle: saline with Tween-80, higher = longer survival) 110 % of control. Besides, the T/C is 104 % of control (endpoint: median survival time, dose: 50.0 mg/kg/injection, schedule: Q01DX011 (ip), vehicle: saline with Tween-80, higher = longer survival) and 98 % of control under setting [8].
